From PubChem BioAssay (NCI)
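Step 1: Grow cells in 96-well plates. Step 2: Expose to compound for 48 hours at 5 concentrations. Step 3: Interpolate endpoints linearly; if unreached, use highest concentration. Definition used: TGI = concentration required for complete inhibition of growth.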

Experiments:
Assay in all cases: inhibition of tumour cell growth, NCI panel, 48 h
[1] = system: EKVX NSCLC
[2] = system: NCI-H23 lung
[3] = system: HCT-116 colon
[4] = system: K-562 leukemia
[5] = system: MDA-N
[6] = system: 786-0 renal
[7] = system: KM12 colon
[8] = system: UACC-62 melanoma
[9] = system: M14 melanoma
[10] = system: SK-MEL-28 melanoma
[11] = system: MDA-MB-231 breast
[12] = system: NCI-H522 lung
[13] = system: HS 578T breast
[14] = system: NCI-H226 lung
[15] = system: T-47D breast
[16] = system: SK-OV-3 ovarian
[17] = system: HOP-62 NSCLC
[18] = system: DU-145 prostate
[19] = system: MDA-MB-435
[20] = system: OVCAR-4 ovarian

CNC(=O)CNC(=O)C(Cc1ccc(NC(=O)CCCCC(C)=O)cc1)NC(=O)C(CCC(=O)OCc1ccccc1)NC(=O)OC(C)(C)C (stereo not given)
TGI [1]: > 100 µM | TGI [2]: > 100 µM | TGI [3]: > 100 µM | TGI [4]: > 100 µM | TGI [5]: > 100 µM | TGI [6]: > 100 µM | TGI [7]: > 100 µM | TGI [8]: > 100 µM | TGI [9]: > 100 µM | TGI [10]: > 100 µM | TGI [11]: > 100 µM | TGI [12]: > 100 µM | TGI [13]: > 100 µM | TGI [14]: > 100 µM | TGI [15]: > 100 µM | TGI [16]: > 100 µM | TGI [17]: > 100 µM | TGI [18]: > 100 µM | TGI [19]: > 100 µM | TGI [20]: > 100 µM

CC(/C=N\NC(=S)N(C)C)=N/NC(=S)N(C)C
TGI [1]: > 100 µM | TGI [2]: > 37.7 µM | TGI [3]: 31.4 µM | TGI [4]: > 100 µM | TGI [5]: > 100 µM | TGI [6]: > 59.8 µM | TGI [7]: > 60.9 µM | TGI [8]: > 100 µM | TGI [9]: > 54.1 µM | TGI [10]: > 100 µM | TGI [11]: > 100 µM | TGI [12]: 20.6 µM | TGI [13]: 52.8 µM | TGI [14]: 13.9 µM | TGI [15]: 2.78 µM | TGI [16]: > 51.9 µM | TGI [17]: > 51.1 µM | TGI [18]: > 100 µM | TGI [19]: > 100 µM | TGI [20]: > 100 µM
